According to patent publication US20040014047A1, “Antisense modulation of LIM domain kinase 1 expression” (Isis Pharmaceuticals Inc., priority 2002, published 2004):
Strand notation (5' to 3'): a small letter for the sugar, then the base; units joined by * are phosphorothioate-linked, units joined directly phosphodiester-linked; [ ] holds rarer units or linkages, { } end groups; capitals alone tell only the bases. e = 2'-O-(2-methoxyethyl) (MOE); [5mC] = 5-methylcytosine; d = 2'-deoxy (DNA)

Assays:
LIM domain kinase 1 mRNA = test: Antisense inhibition of LIM domain kinase 1 expression, dose response in A549 cells, real-time quantitative PCR; assay type: cell-based, human; settings: for Percent Inhibition of LIM Domain Kinase 1 mRNA Levels: averaged from two experiments, normalized to untreated control; for reduction of LIM domain kinase 1 mRNA levels (dose response): 6, 25, 100 and 400 nM
Method: When cells reached 70% confluency, they were treated with oligonucleotide. […] Cells were harvested 16-24 hours after oligonucleotide treatment.
PCR reagents were obtained from Invitrogen Corporation, (Carlsbad, Calif.).
Probes and primers to human LIM domain kinase 1 were designed to hybridize to a human LIM domain kinase 1 sequence, using published sequence information (GenBank accession number D26309.1, incorporated herein as SEQ ID NO:4). For human LIM domain kinase 1 the PCR primers were: forward primer: […] (SEQ ID NO: 5) reverse primer: […] (SEQ ID NO: 6) and the PCR probe was: FAM-[…]-TAMRA (SEQ ID NO: 7) where FAM is the fluorescent dye and TAMRA is the quencher dye.
In accordance with the present invention, three of the oligonucleotides targeted to LIM domain kinase 1: ISIS 206212 ([…], SEQ ID NO: 67), ISIS 206219 ([…], SEQ ID NO: 74) and ISIS 206214 ([…], SEQ ID NO: 69) were investigated in a dose response experiment. The scrambled control oligonucleotides used in the dose response study were ISIS 129695 ([…], SEQ ID NO: 147), and ISIS 114845 ([…], SEQ ID NO: 148).
All cytidine residues are 5-methylcytidines.
In the dose-response experiment, with mRNA levels as the endpoint, A549 cells were treated with ISIS 206212, ISIS 206219, ISIS 206214 and control oligonucleotides at doses of 6, 25, 100 and 400 nM oligonucleotide. Data were obtained by real-time quantitative PCR as described in other examples herein and are averaged from two experiments with mRNA levels in the treatment groups, (including the scrambled control), being normalized to an untreated control group.

[1] = test system: human LIM domain kinase 1 mRNA; test: Antisense inhibition of human LIM domain kinase 1 mRNA levels, quantitative real-time PCR, A549 cells (screen); assay type: cell-based; settings: for % INHIB (inhibition of human LIM domain kinase 1 mRNA levels): quantitative real-time PCR, averages from two experiments, screening concentration not given (50 nM to 300 nM used herein); for inhibition of human LIM domain kinase 1 expression (text summary of Table 1): real-time PCR, bound stated
Summary of the method: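 A549 cells at 70% confluency treated with antisense oligonucleotides (all cytidines 5-methylcytidine), harvested 16-24 h later. LIMK1 mRNA measured by real-time RT-PCR with FAM/TAMRA probe, normalized to total RNA by RiboGreen; values are averages of two experiments.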

Question: What does the source list for “114845 (eT*eA*e[5mC]*eG*eT*d[5mC]*d[5mC]*dG*dG*dA*dG*dG*d[5mC]*dG*dT*eA*e[5mC]*eG*e[5mC]*e[5mC]) [compound 114845]”?
Answer: Percent Inhibition of LIM Domain Kinase 1 mRNA Levels (LIM domain kinase 1 mRNA; dose 6 nM): 0%; Percent Inhibition of LIM Domain Kinase 1 mRNA Levels (LIM domain kinase 1 mRNA; dose 25 nM): 0%; Percent Inhibition of LIM Domain Kinase 1 mRNA Levels (LIM domain kinase 1 mRNA; dose 100 nM): 0%; Percent Inhibition of LIM Domain Kinase 1 mRNA Levels (LIM domain kinase 1 mRNA; dose 400 nM): 24%

Question: How did the “Percent Inhibition of LIM Domain Kinase 1 mRNA Levels” value (“Percent Inhibition” for short) (LIM domain kinase 1 mRNA; dose 6 nM) turn out when “129695 (eT*eT*e[5mC]*eT*eA*d[5mC]*d[5mC]*dT*d[5mC]*dG*d[5mC]*dG*d[5mC]*dG*dA*eT*eT*eT*eA*e[5mC]) [compound 129695]” was run?
Answer: Its value is 2%.

Question: What about the “Percent Inhibition” value (LIM domain kinase 1 mRNA; dose 25 nM) of the same substance?
Answer: Its value is 0%.

Question: What about the “Percent Inhibition” value (LIM domain kinase 1 mRNA; dose 100 nM) of the same substance?
Answer: The value was 12%.

Question: What about the “Percent Inhibition” value (LIM domain kinase 1 mRNA; dose 400 nM) of the same substance?
Answer: The value was 62%.

Question: Which results are given for “206212 (antisense eA*e[5mC]*eT*e[5mC]*e[5mC]*d[5mC]*d[5mC]*dA*dT*dT*dT*dG*dG*dT*dT*e[5mC]*e[5mC]*eT*eG*eG) [compound 206212]”?
Answer: % INHIB (inhibition of human LIM domain kinase 1 mRNA levels) [1]: 91%; Percent Inhibition of LIM Domain Kinase 1 mRNA Levels (LIM domain kinase 1 mRNA; dose 6 nM): 0%; Percent Inhibition of LIM Domain Kinase 1 mRNA Levels (LIM domain kinase 1 mRNA; dose 25 nM): 73%; Percent Inhibition of LIM Domain Kinase 1 mRNA Levels (LIM domain kinase 1 mRNA; dose 100 nM): 91%; Percent Inhibition of LIM Domain Kinase 1 mRNA Levels (LIM domain kinase 1 mRNA; dose 400 nM): 97%

Question: With “206214 (antisense e[5mC]*e[5mC]*eG*eG*e[5mC]*d[5mC]*dA*dG*dG*dG*d[5mC]*dA*d[5mC]*d[5mC]*dG*e[5mC]*eA*eG*e[5mC]*eT) [compound 206214]” as the substance, how does the “% INHIB (inhibition of human LIM domain kinase 1 mRNA levels)” value [1] read?
Answer: The value was 87%.

Question: And the “Percent Inhibition” value (LIM domain kinase 1 mRNA; dose 6 nM)?
Answer: Its value is 0%.

Question: And the “Percent Inhibition” value (LIM domain kinase 1 mRNA; dose 25 nM)?
Answer: Its value is 46%.

Question: And the “Percent Inhibition” value (LIM domain kinase 1 mRNA; dose 100 nM)?
Answer: Its value is 84%.

Question: What about the “Percent Inhibition” value (LIM domain kinase 1 mRNA; dose 400 nM) of the same substance?
Answer: The value was 98%.

Question: How did the “% INHIB (inhibition of human LIM domain kinase 1 mRNA levels)” value [1] turn out when “206219 (antisense eT*eG*e[5mC]*eA*e[5mC]*dT*dG*dA*dG*dA*dA*dA*dG*d[5mC]*dT*eT*e[5mC]*eA*e[5mC]*eA) [compound 206219]” was run?
Answer: The value was 89%.

Question: What about the “Percent Inhibition” value (LIM domain kinase 1 mRNA; dose 6 nM) of the same substance?
Answer: The value was 0%.

Question: What about the “Percent Inhibition” value (LIM domain kinase 1 mRNA; dose 25 nM) of the same substance?
Answer: The value was 67%.

Question: And the “Percent Inhibition” value (LIM domain kinase 1 mRNA; dose 100 nM)?
Answer: Its value is 84%.

Question: What about the “Percent Inhibition” value (LIM domain kinase 1 mRNA; dose 400 nM) of the same substance?
Answer: Its value is 93%.

Question: “actccccatttggttcctgg (eA*e[5mC]*eT*e[5mC]*e[5mC]*d[5mC]*d[5mC]*dA*dT*dT*dT*dG*dG*dT*dT*e[5mC]*e[5mC]*eT*eG*eG; antisense) [ISIS 206212]” was tested. Which “inhibition of human LIM domain kinase 1 expression (text summary of Table 1)” value (“inhibition … (text summary of Table 1)” for short) [1] did it give?
Answer: Its value is “at least 65%”.

Question: And the “reduction of LIM domain kinase 1 mRNA levels (dose response)” value (LIM domain kinase 1 mRNA)?
Answer: Its value is “capable of reducing LIM domain kinase 1 mRNA levels in a dose-dependent manner”.

Question: With “ccggccagggcaccgcagct (e[5mC]*e[5mC]*eG*eG*e[5mC]*d[5mC]*dA*dG*dG*dG*d[5mC]*dA*d[5mC]*d[5mC]*dG*e[5mC]*eA*eG*e[5mC]*eT; antisense) [ISIS 206214]” as the substance, how does the “inhibition … (text summary of Table 1)” value [1] read?
Answer: The value was “at least 65%”.

Question: What about the “reduction of LIM domain kinase 1 mRNA levels (dose response)” value (LIM domain kinase 1 mRNA) of the same substance?
Answer: Its value is “capable of reducing LIM domain kinase 1 mRNA levels in a dose-dependent manner”.

Question: With “ggcccagtagtccttcttgc (eG*eG*e[5mC]*e[5mC]*e[5mC]*dA*dG*dT*dA*dG*dT*d[5mC]*d[5mC]*dT*dT*e[5mC]*eT*eT*eG*e[5mC]; antisense) [ISIS 206174]” as the substance, how does the “inhibition … (text summary of Table 1)” value [1] read?
Answer: Its value is “at least 65%”.

Question: How did the “inhibition … (text summary of Table 1)” value [1] turn out when “ggcgtgccattgatttccaa (eG*eG*e[5mC]*eG*eT*dG*d[5mC]*d[5mC]*dA*dT*dT*dG*dA*dT*dT*eT*e[5mC]*e[5mC]*eA*eA; antisense) [ISIS 206186]” was run?
Answer: The value was “at least 65%”.

Question: For “ggtccttgcgctgggaggcc (eG*eG*eT*e[5mC]*e[5mC]*dT*dT*dG*d[5mC]*dG*d[5mC]*dT*dG*dG*dG*eA*eG*eG*e[5mC]*e[5mC]; antisense) [ISIS 206233]”, which “inhibition … (text summary of Table 1)” value [1] is on record?
Answer: The value was “at least 65%”.

Question: “gtcaacctcatgcactcgac (eG*eT*e[5mC]*eA*eA*d[5mC]*d[5mC]*dT*d[5mC]*dA*dT*dG*d[5mC]*dA*d[5mC]*eT*e[5mC]*eG*eA*e[5mC]; antisense) [ISIS 206163]” was tested. Which “inhibition … (text summary of Table 1)” value [1] did it give?
Answer: Its value is “at least 65%”.

Question: Which “inhibition … (text summary of Table 1)” value [1] does the source give for “gtcacaacacctgcaggaga (eG*eT*e[5mC]*eA*e[5mC]*dA*dA*d[5mC]*dA*d[5mC]*d[5mC]*dT*dG*d[5mC]*dA*eG*eG*eA*eG*eA; antisense) [ISIS 206229]” here?
Answer: The value was “at least 65%”.

Question: With “gtctcggtggatgatgttca (eG*eT*e[5mC]*eT*e[5mC]*dG*dG*dT*dG*dG*dA*dT*dG*dA*dT*eG*eT*eT*e[5mC]*eA; antisense) [ISIS 206202]” as the substance, how does the “inhibition … (text summary of Table 1)” value [1] read?
Answer: The value was “at least 65%”.

Question: How did the “inhibition … (text summary of Table 1)” value [1] turn out when “gtggccctggctcagtcggg (eG*eT*eG*eG*e[5mC]*d[5mC]*d[5mC]*dT*dG*dG*d[5mC]*dT*d[5mC]*dA*dG*eT*e[5mC]*eG*eG*eG; antisense) [ISIS 206207]” was run?
Answer: Its value is “at least 65%”.

Question: For “gtttctgccgggcagagctg (eG*eT*eT*eT*e[5mC]*dT*dG*d[5mC]*d[5mC]*dG*dG*dG*d[5mC]*dA*dG*eA*eG*e[5mC]*eT*eG; antisense) [ISIS 206189]”, which “inhibition … (text summary of Table 1)” value [1] is on record?
Answer: Its value is “at least 65%”.

Question: “tagcgggcccagtagtcctt (eT*eA*eG*e[5mC]*eG*dG*dG*d[5mC]*d[5mC]*d[5mC]*dA*dG*dT*dA*dG*eT*e[5mC]*e[5mC]*eT*eT; antisense) [ISIS 206175]” was tested. Which “inhibition … (text summary of Table 1)” value [1] did it give?
Answer: The value was “at least 65%”.

Question: Which “inhibition … (text summary of Table 1)” value [1] does the source give for “tcacggtgtgtcaccttgat (eT*e[5mC]*eA*e[5mC]*eG*dG*dT*dG*dT*dG*dT*d[5mC]*dA*d[5mC]*d[5mC]*eT*eT*eG*eA*eT; antisense) [ISIS 206195]” here?
Answer: The value was “at least 65%”.

Question: How did the “inhibition … (text summary of Table 1)” value [1] turn out when “tccaggcatcgcatgacctt (eT*e[5mC]*e[5mC]*eA*eG*dG*d[5mC]*dA*dT*d[5mC]*dG*d[5mC]*dA*dT*dG*eA*e[5mC]*e[5mC]*eT*eT; antisense) [ISIS 206198]” was run?
Answer: Its value is “at least 65%”.

Question: Which “inhibition … (text summary of Table 1)” value [1] does the source give for “tccttcttgcagaagagctg (eT*e[5mC]*e[5mC]*eT*eT*d[5mC]*dT*dT*dG*d[5mC]*dA*dG*dA*dA*dG*eA*eG*e[5mC]*eT*eG; antisense) [ISIS 206172]” here?
Answer: Its value is “at least 65%”.

Question: With “tcgagggtcagctggagcag (eT*e[5mC]*eG*eA*eG*dG*dG*dT*d[5mC]*dA*dG*d[5mC]*dT*dG*dG*eA*eG*e[5mC]*eA*eG; antisense) [ISIS 206188]” as the substance, how does the “inhibition … (text summary of Table 1)” value [1] read?
Answer: Its value is “at least 65%”.

Question: Which results are given for “tgcactgagaaagcttcaca (eT*eG*e[5mC]*eA*e[5mC]*dT*dG*dA*dG*dA*dA*dA*dG*d[5mC]*dT*eT*e[5mC]*eA*e[5mC]*eA; antisense) [ISIS 206219]”?
Answer: inhibition of human LIM domain kinase 1 expression (text summary of Table 1) [1]: at least 65%; reduction of LIM domain kinase 1 mRNA levels (dose response) (LIM domain kinase 1 mRNA): capable of reducing LIM domain kinase 1 mRNA levels in a dose-dependent manner

Question: Which “inhibition … (text summary of Table 1)” value [1] does the source give for “tggatggaattcttcacatc (eT*eG*eG*eA*eT*dG*dG*dA*dA*dT*dT*d[5mC]*dT*dT*d[5mC]*eA*e[5mC]*eA*eT*e[5mC]; antisense) [ISIS 206183]” here?
Answer: Its value is “at least 65%”.

Question: Which “inhibition … (text summary of Table 1)” value [1] does the source give for “tgtccatgctcttgatgatg (eT*eG*eT*e[5mC]*e[5mC]*dA*dT*dG*d[5mC]*dT*d[5mC]*dT*dT*dG*dA*eT*eG*eA*eT*eG; antisense) [ISIS 206199]” here?
Answer: Its value is “at least 65%”.

Question: Which “inhibition … (text summary of Table 1)” value [1] does the source give for “ttcttccctccaggtgcaac (eT*eT*e[5mC]*eT*eT*d[5mC]*d[5mC]*d[5mC]*dT*d[5mC]*d[5mC]*dA*dG*dG*dT*eG*e[5mC]*eA*eA*e[5mC]; antisense) [ISIS 206166]” here?
Answer: Its value is “at least 65%”.
